Measured values: patent US9561228B2 (Celgene Avilomics Research, Inc., priority 2013, dated 2017)

Legend:
[1] = molecular target: T1, Erk1 (Homo sapiens, UniProt P27361); experiment: Protein Mass Modification Assay (intact protein MALDI, 60 min, 10-fold excess of compound); type: binding
T1 construct: purchased Millipore 14-439
In short: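 Human Erk1 was incubated 60 min at room temperature with a 10-fold molar excess of compound, then analysed as intact protein by MALDI with sinapinic acid matrix. The centroid mass shift versus untreated protein was divided by compound molecular weight to give percent modified protein.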

[2] = test system: ERK1/2 phosphorylation of p90RSK in A375 cells; experiment: Detection of total and phosphor-RSK by MSD ELISA (A375); type: cell-based; settings: Homo sapiens, A-375, read-out: ERK1/ERK2 PRSK A375 EC50
In short: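 A375 cells serum-starved overnight in DMEM/0.1% FBS, then treated 2 h at 37° C with compound (1000× DMSO dilutions into medium). Lysates captured on RSK antibody-coated MSD plates; phospho-RSK (Ser380) and total RSK detected with SulfoTag secondary antibodies by electrochemiluminescence.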

[3] = molecular target: T2, MEK1 activated ERK1 (Homo sapiens, UniProt P27361); experiment: Omnia continuous-read kinase assay for potency against MEK1 activated ERK1; type: biochemical; settings: ATP at KM, WT
T2 construct: purchased Millipore (Billerica, Mass.) 14-439-K
T2 sequence (P27361 whole entry): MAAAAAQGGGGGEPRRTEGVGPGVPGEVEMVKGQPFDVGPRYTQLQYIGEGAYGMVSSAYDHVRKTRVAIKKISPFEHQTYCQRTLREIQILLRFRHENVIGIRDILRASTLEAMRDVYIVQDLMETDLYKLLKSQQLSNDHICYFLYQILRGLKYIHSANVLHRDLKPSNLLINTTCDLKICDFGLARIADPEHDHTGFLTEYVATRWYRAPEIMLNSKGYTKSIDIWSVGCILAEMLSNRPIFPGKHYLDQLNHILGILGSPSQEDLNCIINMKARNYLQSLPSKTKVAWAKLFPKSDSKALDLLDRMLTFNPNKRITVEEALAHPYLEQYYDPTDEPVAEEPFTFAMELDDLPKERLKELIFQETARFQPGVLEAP
In short: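 Apparent IC50 came from initial reaction slopes (RFU vs time) plotted against log inhibitor with a variable-slope fit. Reactions were started with ERK1 (4 nM final) added to 50 μM ATP, roughly at its appKM, and 10 μM Sox-conjugated ST17 peptide in 20 mM Tris pH 7.5, 5 mM MgCl2. Fluorescence was monitored every 71 seconds.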

T1 sequence (P27361 whole entry): as above

Compound	ERK1 Mass Mod (%) [1]	EC50 [2]	IC50 [3]
C=CC(=O)Nc1cc(C)ccc1Nc1nc(Nc2ncc(F)c(OC)n2)ncc1C(F)(F)F [Compound I-356, N-(2-((2-((5-fluoro-4-methoxypyrimidin-2-yl)amino)-5-(trifluoromethyl)pyrimidin-4-yl)amino)-5-methylphenyl)acrylamide]	E (a mass modification of ≧70%)	101 to 500 nM	501 to 999 nM
C=CC(=O)Nc1cc(C)ccc1Nc1nc(Nc2nc(OC)ncc2F)ncc1C(F)(F)F [Compound I-357, N-(2-((2-((5-fluoro-2-methoxypyrimidin-4-yl)amino)-5-(trifluoromethyl)pyrimidin-4-yl)amino)-5-methylphenyl)acrylamide]	E (a mass modification of ≧70%)	101 to 500 nM	101 to 500 nM
C=CC(=O)Nc1cc(C)ccc1Nc1nc(Nc2cc(OCC)ncc2C)ncc1C(F)(F)F [Compound I-358, N-(2-((2-((2-ethoxy-5-methylpyridin-4-yl)amino)-5-(trifluoromethyl)pyrimidin-4-yl)amino)-5-methylphenyl)acrylamide]	E (a mass modification of ≧70%)	101 to 500 nM	101 to 500 nM
C=CC(=O)Nc1cc(C)ccc1Nc1nc(Nc2cc(OCCOC)ncc2C)ncc1C(F)(F)F [Compound I-359, N-(2-((2-((2-(2-methoxyethoxy)-5-methylpyridin-4-yl)amino)-5-(trifluoromethyl)pyrimidin-4-yl)amino)-5-methylphenyl)acrylamide]	E (a mass modification of ≧70%)	101 to 500 nM	101 to 500 nM
C=CC(=O)Nc1cc(C)c(F)cc1Nc1nc(Nc2cc(OC)ncc2C)ncc1C(F)(F)F [Compound I-366, N-(4-fluoro-2-((2-((2-methoxy-5-methylpyridin-4-yl)amino)-5-(trifluoromethyl)pyrimidin-4-yl)amino)-5-methylphenyl)acrylamide]	E (a mass modification of ≧70%)	> 1000 nM	> 1000 nM
C=CC(=O)Nc1c(Nc2nc(Nc3cc(OC)ncc3C)ncc2C(F)(F)F)ccc(C)c1F [Compound I-367, N-(2-fluoro-6-((2-((2-methoxy-5-methylpyridin-4-yl)amino)-5-(trifluoromethyl)pyrimidin-4-yl)amino)-3-methylphenyl)acrylamide]	E (a mass modification of ≧70%)	101 to 500 nM	101 to 500 nM
C=CC(=O)Nc1cc(C)ccc1Nc1nc(Nc2cc(OC(C)C)ncc2C)ncc1C(F)(F)F [Compound I-369, N-(2-((2-((2-isopropoxy-5-methylpyridin-4-yl)amino)-5-(trifluoromethyl)pyrimidin-4-yl)amino)-5-methylphenyl)acrylamide]	F (a mass modification of 31-69%)	> 1000 nM	> 1000 nM
C=CC(=O)Nc1cc(C)ccc1Nc1nc(Nc2c[nH]c(=O)cc2C)ncc1C(F)(F)F [Compound I-370, N-(5-methyl-2-((2-((4-methyl-6-oxo-1,6-dihydropyridin-3-yl)amino)-5-(trifluoromethyl)pyrimidin-4-yl)amino)phenyl)acrylamide]	E (a mass modification of ≧70%)	> 1000 nM	101 to 500 nM
C=CC(=O)Nc1cc(C)ccc1Nc1nc(Nc2nc(OC)nc(OC)n2)ncc1C(F)(F)F [Compound I-371, N-(2-((2-((4,6-dimethoxy-1,3,5-triazin-2-yl)amino)-5-(trifluoromethyl)pyrimidin-4-yl)amino)-5-methylphenyl)acrylamide]	F (a mass modification of 31-69%)	101 to 500 nM	101 to 500 nM
C=CC(=O)Nc1cc(C)ccc1Nc1nc(Nc2cc(OC)nnc2OC)ncc1C(F)(F)F [Compound I-372, N-(2-((2-((3,6-dimethoxypyridazin-4-yl)amino)-5-(trifluoromethyl)pyrimidin-4-yl)amino)-5-methylphenyl)acrylamide]	F (a mass modification of 31-69%)	101 to 500 nM	501 to 999 nM
C=CC(=O)Nc1cc(C)ccc1Nc1nc(Nc2cc(-c3nc[nH]n3)ccc2C)ncc1C(F)(F)F [Compound I-373, N-(5-methyl-2-((2-((2-methyl-5-(1H-1,2,4-triazol-3-yl)phenyl)amino)-5-(trifluoromethyl)pyrimidin-4-yl)amino)phenyl)acrylamide]	F (a mass modification of 31-69%)	501 to 999 nM	> 1000 nM
C=CC(=O)Nc1cc(C)c(F)cc1Nc1nc(Nc2nc(OC)ncc2Cl)ncc1C(F)(F)F [Compound I-374, N-(2-((2-((5-chloro-2-methoxypyrimidin-4-yl)amino)-5-(trifluoromethyl)pyrimidin-4-yl)amino)-4-fluoro-5-methylphenyl)acrylamide]	E (a mass modification of ≧70%)	< 100 nM	< 100 nM
C=CC(=O)Nc1cc(C)ccc1Nc1nc(Nc2ccc3ocnc3c2)ncc1C(F)(F)F [Compound I-375, N-(2-((2-(benzo[d]oxazol-5-ylamino)-5-(trifluoromethyl)pyrimidin-4-yl)amino)-5-methylphenyl)acrylamide]	E (a mass modification of ≧70%)	101 to 500 nM	> 1000 nM
C=CC(=O)Nc1cc(C)ccc1Nc1nc(Nc2cc(OCCO)ncc2C)ncc1C(F)(F)F [Compound I-376, N-(2-((2-((2-(2-hydroxyethoxy)-5-methylpyridin-4-yl)amino)-5-(trifluoromethyl)pyrimidin-4-yl)amino)-5-methylphenyl)acrylamide]	E (a mass modification of ≧70%)	< 100 nM	101 to 500 nM
C=CC(=O)Nc1cc(C)c(F)cc1Nc1nc(Nc2nc(OC)ncc2C)ncc1C(F)(F)F [Compound I-377, N-(4-fluoro-2-((2-((2-methoxy-5-methylpyrimidin-4-yl)amino)-5-(trifluoromethyl)pyrimidin-4-yl)amino)-5-methylphenyl)acrylamide]	E (a mass modification of ≧70%)	< 100 nM	< 100 nM
C=CC(=O)Nc1cc(C)ccc1Nc1nc(Nc2cc(-c3c[nH]cn3)ccc2C)ncc1C(F)(F)F [Compound I-378, N-(2-((2-((5-(1H-imidazol-4-yl)-2-methylphenyl)amino)-5-(trifluoromethyl)pyrimidin-4-yl)amino)-5-methylphenyl)acrylamide]	E (a mass modification of ≧70%)	501 to 999 nM	501 to 999 nM
C=CC(=O)Nc1cc(C)ccc1Nc1nc(Nc2ccnc3ccccc23)ncc1C(F)(F)F [Compound I-379, N-(5-methyl-2-((2-(quinolin-4-ylamino)-5-(trifluoromethyl)pyrimidin-4-yl)amino)phenyl)acrylamide]	E (a mass modification of ≧70%)	< 100 nM	101 to 500 nM
C=CC(=O)Nc1cc(CN2CCN(C(C)=O)CC2)ccc1Nc1nc(Nc2cc(OC)ncc2C)ncc1C(F)(F)F [Compound I-381, N-(5-((4-acetylpiperazin-1-yl)methyl)-2-((2-((2-methoxy-5-methylpyridin-4-yl)amino)-5-(trifluoromethyl)pyrimidin-4-yl)amino)phenyl)acrylamide]	E (a mass modification of ≧70%)	< 100 nM	< 100 nM
C=CC(=O)Nc1cc(CN2CCN(C(C)=O)CC2)ccc1Nc1nc(Nc2nc(OC)ncc2C)ncc1C(F)(F)F [Compound I-382, N-(5-((4-acetylpiperazin-1-yl)methyl)-2-((2-((2-methoxy-5-methylpyrimidin-4-yl)amino)-5-(trifluoromethyl)pyrimidin-4-yl)amino)phenyl)acrylamide]	E (a mass modification of ≧70%)	> 1000 nM	101 to 500 nM
C=CC(=O)Nc1cc(CN2CCN(S(C)(=O)=O)CC2)ccc1Nc1nc(Nc2nc(OC)ncc2C)ncc1C(F)(F)F [Compound I-383, N-(2-((2-((2-methoxy-5-methylpyrimidin-4-yl)amino)-5-(trifluoromethyl)pyrimidin-4-yl)amino)-5-((4-(methylsulfonyl)piperazin-1-yl)methyl)phenyl)acrylamide]	E (a mass modification of ≧70%)	> 1000 nM	101 to 500 nM
C=CC(=O)Nc1cc(CN2CCN(S(C)(=O)=O)CC2)ccc1Nc1nc(Nc2cc(OC)ncc2C)ncc1C(F)(F)F [Compound I-384, N-(2-((2-((2-methoxy-5-methylpyridin-4-yl)amino)-5-(trifluoromethyl)pyrimidin-4-yl)amino)-5-((4-(methylsulfonyl)piperazin-1-yl)methyl)phenyl)acrylamide]	E (a mass modification of ≧70%)	< 100 nM	< 100 nM
C=CC(=O)Nc1cc(CN2CCN(C(=O)CO)CC2)ccc1Nc1nc(Nc2cc(OC)ncc2C)ncc1C(F)(F)F [Compound I-385, N-(5-((4-(2-hydroxyacetyl)piperazin-1-yl)methyl)-2-((2-((2-methoxy-5-methylpyridin-4-yl)amino)-5-(trifluoromethyl)pyrimidin-4-yl)amino)phenyl)acrylamide]	E (a mass modification of ≧70%)	< 100 nM	< 100 nM
